Patent publication US20090143438A1, “Novel Pyridine Derivative Having Anti-Helicobacter Pylori Activity” (Arigen Pharmaceuticals, Inc., priority 2006, published 2009)
In brackets after ≈: the same amount, converted by molar mass.

How the values were obtained:
[1] = tested on: Helicobacter pylori NCTC11916; conditions: standard strain NCTC11916; data from Table 6 of JP-A No. 7-69888; cited from earlier work
[2] = tested on: Helicobacter pylori NCTC11637; conditions: standard strain NCTC11637; data from Table 6 of JP-A No. 7-69888; cited from earlier work
H. pylori, ATCC 43504 = experiment: Antibacterial power test, Columbia agar, MIC; format: cell-based, Helicobacter pylori; conditions: Helicobacter pylori, ATCC43504, 72 h, 37° C., pH 7.0, 3 days, read on 4th day, read-out: MIC, in vitro anti-Helicobacter pylori activity
Description: An in vitro test was performed in a Columbia agar medium using a standard strain of H. pylori, ATCC 43504. […] Each of the test objects was dissolved in a 1% DMSO solution. Furthermore, as antibiotic control drugs, ampicillin from the penicillin family (control drug 1), gentamycin from the aminoglycoside family (control drug 2), tetracycline from the tetracycline family (control drug 3), and ofloxacin from the new quinolone family (control drug 4) were used.

In the case of COc1ccc2[nH]c([S+]([O-])Cc3ncc(C)c(OC)c3C)nc2c1 (stereo not shown) [(a), 5-methoxy-2-(4-methoxy-3,5-dimethylpyridin-2-yl)methylsulfinyl-1H-benzimidazole], the MIC [1] is given as 50 µg/mL (≈ 145 µM) and the MIC [2] is given as 50 µg/mL (≈ 145 µM).
For COc1ccc2[nH]c(SCc3ncc(C)c(OC)c3C)nc2c1 [(b), 5-methoxy-2-(4-methoxy-3,5-dimethylpyridin-2-yl)methylthio-1H-benzimidazole], the MIC [1] is given as 12.5 µg/mL (≈ 37.9 µM) and the MIC [2] is given as 12.5 µg/mL (≈ 37.9 µM).
In the case of Cc1c(OCC(F)(F)F)ccnc1C[S+]([O-])c1nc2ccccc2[nH]1 (stereo not shown) [(c), 2-[3-methyl-4-(2,2,2-trifluoroethoxy)pyridine-2-yl]methylsulfinyl-1H-benzimidazole], the MIC [1] is listed as 12.5 µg/mL (≈ 33.8 µM) and the MIC [2] is listed as 6.25 µg/mL (≈ 16.9 µM).
For Cc1c(OCC(F)(F)F)ccnc1CSc1nc2ccccc2[nH]1 [(d), 2-[3-methyl-4-(2,2,2-trifluoroethoxy)pyridine-2-yl]methylthio-1H-benzimidazole], the MIC [1] is listed as 1.56 µg/mL (≈ 4.41 µM) and the MIC [2] is listed as 1.56 µg/mL (≈ 4.41 µM).
In the case of COCCCOc1ccnc(C[S+]([O-])c2nc3ccccc3[nH]2)c1C.[Na] (stereo not shown) [(e), 2-[4-(3-methoxypropoxy)-3-methylpyridin-2-yl]methylsulfinyl-1H-benzimidazole sodium salt], the MIC [1] is given as 1.56 µg/mL and the MIC [2] is given as 0.8 µg/mL.
In the case of COCCCOc1ccnc(CSc2nc3ccccc3[nH]2)c1C [(f), 2-[4-(3-methoxypropoxy)-3-methylpyridin-2-yl]methylthio-1H-benzimidazole], the MIC [1] is listed as 1.56 µg/mL (≈ 4.54 µM) and the MIC [2] is listed as 0.8 µg/mL (≈ 2.33 µM).
Work on Cc1c(OCCO)ccnc1CSc1nc2ccccc2[nH]1 [Comparative Compound 1, 2-[{4-(2-hydroxyethoxy)-3-methylpyridin-2-yl}methylthio]-1H-benzimidazole, reference compound] yielded an MIC (H. pylori, ATCC 43504) of 10 µg/mL (≈ 31.7 µM).
